Laboratory results reported in US7935485B2, “Genetic polymorphisms for identifying individuals at risk for drug-induced vestibular dysfunction” (University of Maryland College Park, priority 2007, dated 2011).
“Also recorded” adds a separate entry of the source.

Key:
[1] = in vivo; cited from earlier work
[2] = cited from earlier work
[3] = Case/control study, subject characteristics of cases with GM-induced vestibular dysfunction; format: in vivo, human; conditions: attributed to GM therapy
Protocol: Subjects: Subjects were recruited for participation in a case/control study. Cases were recruited from various vestibular dysfunction support groups through advertisements and direct mailings. Cases were included if they could document profound unilateral or bilateral vestibular loss due specifically to GM administration after the age of 18 yr. […] Normal vestibular function was determined with the use of a clinical balance function questionnaire and medical history information. There are no apparent sex or racial differences in susceptibility to GM-induced vestibular dysfunction, so no inclusion limitations were made on those parameters, although the vast majority of recruited subjects were white. Because allele frequencies for many polymorphisms differ by race and only 10 non-white subjects completed the study, all results are presented for the 263 white participants. Children have higher risk for GM-induced ototoxicity, so only individuals >18 yr. and who were >18 yr. at the time of GM therapy were included. All subjects provided written informed consent and all procedures were approved by the University of Maryland Institutional Review Board.
Procedures: Potential subjects completed medical history and balance function questionnaires, and patients specifically provided medical record release authorizations. […]

[4] = tested on: vestibular hair cell; conditions: by inhibiting NO and ROS production; cited from earlier work
[5] = provided simultaneously with GM; cited from earlier work

## gentamicin [GM]
[1]
  metabolism: not metabolized, but simply excreted by the kidney; also recorded: not metabolized by the body
[2]; GM-treated patients (33), different patients than those with auditory dysfunction
  vestibular dysfunction: three
[2]; GM-treated patients, number affected of 33
  auditory dysfunction: three of 33
[3]
  Hearing complications, (%): (34%)
  Renal complications, (%): (14%)

## O[C@@H]1CO[C@H]2[C@@H]1OC[C@@H]2O [isosorbide]
[4]
  effect on GM-induced vestibular hair cell death: delay GM-induced vestibular hair cell death

B1: BDNF: brain-derived neurotrophic factor, a neurotrophic factor (protein, UniProt P23560 19-247, looked up)
Neurotrophic factor BDNF …: APMKEANIRGQGGLAYPGVRTHGTLESVNGPKAGSRGLTSLADTFEHVIEELLDEDQKVRPNEENNKDADLYTSRVMLSSQVPLEPPLLFLLEEYKNYLDAANMSMRVRRHSDPARRGELSVCDSISEWVTAADKKTAVDMSGGTVTVLEKVPVSKGQLKQYFYETKCNPMGYTKEGCRGIDKRHWNSQCRTTQSYVRALTMDSKKRIGWRFIRIDTSCVCTLTIKRGR
[5]
  effect on ototoxic damage: limits ototoxic damage
